Values joined by “and” are separate entries in the source; they are usually repeats but may differ in a detail not shown here. Equal entries are not always repeated.
Tests used:
E. coli (ATCC 29425) = assay: Live/dead flow cytometry biocidal assay with samples UVA pre-irradiated before bacterial exposure, Example 2; assay type: cell-based, Escherichia coli; conditions: for biocidal activity vs. E. coli after pre-irradiation: then 30 minutes UVA with bacteria
Protocol: (§1) All media and buffers were prepared using deionized water with a resistivity exceeding 18 MΩ*cm. Nutrient Broth 234000 (Difco) was prepared according to manufacturer's instructions, and Nutrient Agar was prepared upon the addition of 8 g/L Bacto agar (Difco). Both S. aureus (ATCC 25923) and E. coli (ATCC 29425) were grown from glycerol-preserved stock. The frozen stock aliquots were generated from first-generation cultures of the original ATCC lyophilate, which were grown in Nutrient Broth containing 20% glycerol, and subsequently stored at −70° C. The cells were grown by inoculating the glycerol stock on Difco Nutrient Agar for 24 hours at 37° Celsius. For biocidal testing, S. aureus and E. coli cells were scraped off the agar plate with a flame-sterilized wire and transferred to nutrient broth. Cells were incubated in an Orbital Incubator Shaker (American Instruments, Lafayette, Calif.) at 37° Celsius in nutrient broth with rapid shaking (250 rpm) for 18 hours. Following the 18-hour incubation period, cells were separated from the nutrient broth by two 15-minute centrifugations at 4,400 rpm, each of which was followed by removal of the supernatant and re-suspension in 30 mL 0.85% NaCl.
(§2) Flow cytometry was implemented to determine the cell concentration of the 0.85% NaCl-suspended bacterial stock solutions. An Accuri C6 flow cytometer (Becton Dickinson, Franklin Lakes, N.J.) equipped with a blue laser that excites at 488 nm was utilized. Two filters were used: a green fluorescence filter (FL-1: 530 nm) and a red fluorescence filter (FL-3: 670 nm long pass). Two thresholds were used, a primary threshold and a secondary threshold. […] Flow cytometer core size in all experiments was 10 μm, with a flow rate of 14 μL/minute. Using these settings, 20 μL of un-stained stock solution was sufficient for identifying the stock concentration of cells.
For biocidal testing, the stock solution was either diluted or concentrated to 2×10^7 cells/mL. Equal volumes of the sample and bacterial solution were added to glass tubes prior to analysis. Cells were stained with 5 mM SYTO 21 (live stain; Life Technologies, Grand Island, N.Y.) and […] Propidium iodide (dead stain; Life Technologies, Grand Island, N.Y.) for 15-30 minutes prior to flow cytometry anaylsis. An example of the flow cytometry gating scheme for E. coli is shown below, in FIG. 14. […]
(§3) The solid compound OPE 1, as a dichloride salt, was dissolved in filtered water with a resistivity of 18 MΩ*cm to a final concentration of 10 μM. […] Progress of the photolysis was monitored by UV-visible absorption spectroscopy with a Molecular Devices Spectramax M5 spectrophotometer (Molecular Devices, Sunnyvale, Calif.). […]

S. aureus (ATCC 25923) = assay: as above; assay type: cell-based, Staphylococcus aureus; conditions: for biocidal activity vs. S. aureus after pre-irradiation: then 15 minutes UVA with bacteria
Protocol: as §1
as §2, with “Using these settings, 20 μL of un-stained stock solution was sufficient for identifying the stock concentration of cells.” left out
as §3

E. coli [1] = assay: Confocal fluorescence microscopy of exposed bacteria, Example 2; assay type: cell-based, Escherichia coli; conditions: UVA, versus untreated cells, FIG. 20
S. aureus [2] = assay: Confocal microscopy of bacteria irradiated with UVA for 15 minutes, Example 2; assay type: cell-based, Staphylococcus aureus; conditions: UVA light for 15 minutes, FIG. 22
Protocol: The solid compound OPE 1, as a dichloride salt, was dissolved in filtered water with a resistivity of 18 MΩ*cm to a final concentration of 10 μM. The solution was then exposed to UVA radiation via a Luzchem LZC-ORG photoreactor (Luzchem Research, Ontario, Canada) in a quartz tube or cuvette. This photoreactor was configured with 10 LZC-UVA lamps (>5.3 mW-cm^−2 over 316-400 nm, Luzchem Research, Ontario, Canada) with a fan-powered exhaust to keep a stable temperature and a carousel for homogeneous irradiation of samples. Progress of the photolysis was monitored by UV-visible absorption spectroscopy with a Molecular Devices Spectramax M5 spectrophotometer (Molecular Devices, Sunnyvale, Calif.). Sodium dodecyl sulfate (SDS) was obtained from Sigma Aldrich. For the OPE 1-SDS complexes, 10 μM OPE 1 was mixed with 40 μM SDS, 0.24% of the critical micelle concentration (CMC). S. aureus samples were exposed to a OPE 1-SDS complex where the concentration of SDS was 0.33 mM, as they were much more resilient to killing caused by SDS. Samples were irradiated for 0, 30, 60, and 120 minutes prior to exposure to bacteria. Once exposed to OPE 1 or 1-SDS complex, E. coli and S. aureus samples were irradiated with UVA in the photoreactor for 30 minutes and 15 minutes, respectively.

[3] = UVA photolysis under the same conditions, without surfactant; cited from earlier work
[4] = test system: Staphylococcus aureus (ATCC 10832); assay: Biocidal testing by standard plating (colony counts relative to UVA negative control), Example 1; assay type: cell-based; conditions: FIG. 4
Protocol: (§4) All media and buffers were prepared with deionized water with a resistivity of at least 18 MΩ cm. Nutrient broth 234000 (Difco) was prepared according to manufacturer's instructions. Nutrient agar was prepared upon the addition of 8 g/L bacto agar (Difco). Staphylococcus aureus (ATCC 10832) and Escherichia coli (ATCC 29425) were both grown from glycerol-preserved stock which originated from first-generation cultures of original ATCC lyophilates grown in nutrient broth (containing 20% glycerol) and subsequently stored at −70° C. Cells of the aforementioned strains were grown upon the inoculation of glycerol stock on Difco nutrient agar at 37° C. for 24 hours. Cell culture preparation for biocidal testing entailed scraping S. aureus or E. coli colonies off their agar plates and transferring them to nutrient broth for growth. Cells were then incubated in an Orbital Incubator Shaker (American Instruments, Lafayette, Calif.) for 18 h at 37° C. with rapid shaking (250 rpm). Following the incubation period, cells were washed by two 15 min centrifugations at 4,400 rpm; in each case, supernatant was replaced by 30 mL of 0.85% NaCl following pellet formation.
(§5) The bacterial stock solution was either diluted or concentrated to 2×10^7 cells/mL. Samples were diluted by the addition of 0.85% NaCl, while concentrating the sample entailed centrifugation to pellet the cells, followed by removal of the necessary amount of supernatant and subsequent resuspension of the pellet by vortexing. 500 μL of bacterial solution was added to glass vials with 500 μL of sample solution to reach a final volume of 1 mL prior to analysis. Samples tested contained 10 μM OPE, 40 μM TTAB, or both 10 μM OPE and 40 μM TTAB. Biocidal activity under UVA irradiation was determined using a Luzchem LZC-ORG photoreactor (Luzchem Research, Ontario, Canada). This photoreactor was configured with 10 UVA lamps (0.975 mW/cm^2 over 316-400 nm) with a fan-powered exhaust to keep a stable temperature of 28° C. and a rotating carousel for homogeneous irradiation of samples. Samples exposed in the dark were kept at room temperature, 25° C. 70% Ethanol was used as a positive control, and a 60 minute UVA-irradiated sample of bacteria was used as a negative control.
(§6) The results of the live/dead assay were verified by confocal fluorescence microscopy using a Zeiss Confocal microscope with an Ar laser (488 nm) and a HeNe laser ([…]) as excitation sources. Standard plating techniques were utilized to validate flow cytometry data. This entailed pipetting and spreading 50 μL aliquots of diluted, unstained sample, onto nutrient agar plates. The plates were incubated at 37° C. for 18 hours, colonies were counted, and viabilities were calculated relative to the UVA negative control. […]

[5] = test system: Staphylococcus aureus (ATCC 10832); assay: Live/dead flow cytometry biocidal assay, Example 1; assay type: cell-based; conditions: 60 minutes, 10 μM OPE
Protocol: All media and buffers were prepared with deionized water with a resistivity of at least 18 MΩ cm. Nutrient broth 234000 (Difco) was prepared according to manufacturer's instructions. Nutrient agar was prepared upon the addition of 8 g/L bacto agar (Difco). Staphylococcus aureus (ATCC 10832) and Escherichia coli (ATCC 29425) were both grown from glycerol-preserved stock which originated from first-generation cultures of original ATCC lyophilates grown in nutrient broth (containing 20% glycerol) and subsequently stored at −70° C. Cells of the aforementioned strains were grown upon the inoculation of glycerol stock on Difco nutrient agar at 37° C. for 24 hours. […]
The bacterial stock solution was either diluted or concentrated to 2×10^7 cells/mL. […] Biocidal activity under UVA irradiation was determined using a Luzchem LZC-ORG photoreactor (Luzchem Research, Ontario, Canada). […]
Flow cytometry gating and analysis were carried out as performed in previous studies of biocidal activity of OPEs (see Z. Malik, J. Hanania, Y. Nitzan New trends in photobiology bactericidal effects of photoactivated porphyrins—An alternative approach to antimicrobial drugs, Journal of Photochemistry and Photobiology B: Biology 1990, 5 (3-4), 281-293). […] 100,000 events were recorded in each sample. […]

[6] = in water; cited from earlier work
[7] = test system: Escherichia coli (ATCC 29425); assay: Biocidal testing by standard plating (colony counts relative to UVA negative control), Example 1; assay type: cell-based; conditions: 40 μM TTAB alone, one hour of exposure, FIG. 5
Protocol: as §4, §5, §6

S. aureus [8] = conditions: reported value, against S. aureus; cited from earlier work
E. coli [9] = conditions: reported value, against E. coli; cited from earlier work
[10] = 10 μM OPE 1, 30 minutes of UVA irradiation prior to bacterial exposure
[11] = 10 μM OPE 1, 2 hours of UVA pre-exposure
[12] = 0.33 mM SDS alone, control experiment

C[N+](C)(C)CCOc1ccc(C#Cc2ccc(C#Cc3ccc(OCC[N+](C)(C)C)cc3)cc2)cc1 [OPE 1]
biocidal activity vs. E. coli after pre-irradiation (E. coli (ATCC 29425); [10]): significant drop in biocidal activity
biocidal activity vs. E. coli after pre-irradiation (E. coli (ATCC 29425); [11]): nearly lost
biocidal activity vs. S. aureus after pre-irradiation (S. aureus (ATCC 25923); [10]): significant drop in biocidal activity
biocidal activity vs. S. aureus after pre-irradiation (S. aureus (ATCC 25923); [11]): entirely lost
filamentous growth of E. coli (stress response) (E. coli [1]): more likely to undergo filamentous growth than untreated cells
clustering of S. Aureus (stress response) (S. aureus [2]): clusters of large numbers of cells
time of photolysis until absorbance diminished and fluorescence completely quenched [3]: ≤ 2 min

O=S(=O)(O)CCCOc1ccc(C#Cc2ccc(C#Cc3ccc(OCCCS(=O)(=O)O)cc3)cc2)cc1 [OPE]
S. aureus killed ([4]; in the dark, 60 minutes, 10 μM OPE (complex: plus 40 μM TTAB)): 41.3%
S. aureus killed ([4]; in the light (UVA), 60 minutes, 10 μM OPE (complex: plus 40 μM TTAB)): 68.1%
S. aureus killed (immediate killing by flow cytometry) ([5]; in the dark): 23.2%
S. aureus killed (immediate killing by flow cytometry) ([5]; under UVA irradiation): 35.1%

CCCCCCCCCCCCOS(=O)(=O)[O-].[Na+] [SDS, sodium dodecyl sulfate]
E. coli cells killed (E. coli (ATCC 29425); 40 μM SDS alone, control experiment): ~40%
effect on E. coli (E. coli (ATCC 29425); [12]): significant killing
effect on S. aureus (S. aureus (ATCC 25923); [12]): viable
critical micelle concentration [6]: ~8.3 mM

CCCCCCCCCCCCCC[N+](C)(C)C.[Br-] [TTAB, tetradecyl trimethylammonium bromide]
E. coli killed [7]: 56.1% and 56%
S. aureus killed ([4]; 40 μM TTAB alone, one hour of exposure): 8.7% and 9%
minimum inhibitory concentration (S. aureus [8]): 5 mM
minimum inhibitory concentration (E. coli [9]): 5 mM
critical micelle concentration [6]: 4.3 mM
